Series [1] is described as follows: repeated administration: immunogenicity and toxicity. It is filed as in vivo.
A further series can be described thus: solubility in solvents. It is filed as physicochemical.

Take `CC[C@H](C)[C@@H]1NC(=O)[C@H](CCCNC(=N)N)NC(=O)[C@H](CC(=O)O)NC(=O)[C@H](CCSC)NC(=O)[C@H](CCCNC(=N)N)NC(=O)CNC(=O)CNC(=O)[C@H](Cc2ccccc2)NC(=O)[C@@H](NC(=O)[C@H](CO)NC(=O)[C@H](CO)NC(=O)[C@H](CCCNC(=N)N)NC(=O)[C@H](CCCNC(=N)N)NC(=O)[C@H](CC(C)C)NC(=O)[C@@H](N)CO)CSSC[C@@H](C(=O)N[C@@H](CC(N)=O)C(=O)N[C@@H](CO)C(=O)N[C@@H](Cc2ccccc2)C(=O)N[C@@H](CCCNC(=N)N)C(=O)N[C@@H](Cc2ccc(O)cc2)C(=O)O)NC(=O)CNC(=O)[C@H](CC(C)C)NC(=O)CNC(=O)[C@H](CO)NC(=O)[C@H](CCC(N)=O)NC(=O)[C@H](C)NC(=O)CNC(=O)[C@H]([C@@H](C)CC)NC(=O)[C@H](CCCNC(=N)N)NC(=O)[C@H](CC(=O)O)NC(=O)[C@H](CCSC)NC(=O)[C@H](CCCNC(=N)N)NC(=O)CNC(=O)CNC(=O)[C@H](Cc2ccccc2)NC(=O)[C@@H](NC(=O)[C@H](CO)NC(=O)[C@H](CO)NC(=O)[C@H](CCCNC(=N)N)NC(=O)[C@H](CCCNC(=N)N)NC(=O)[C@H](CC(C)C)NC(=O)[C@@H](N)CO)CSSC[C@@H](C(=O)N[C@@H](CC(N)=O)C(=O)N[C@@H](CO)C(=O)N[C@@H](Cc2ccccc2)C(=O)N[C@@H](CCCNC(=N)N)C(=O)N[C@@H](Cc2ccc(O)cc2)C(=O)O)NC(=O)CNC(=O)[C@H](CC(C)C)NC(=O)CNC(=O)[C@H](CO)NC(=O)[C@H](CCC(N)=O)NC(=O)[C@H](C)NC(=O)CNC1=O` [β-hANP, β-human atrial natriuretic polypeptide]: the toxicity entry in series [1] (gradually hydrolized in a body to L-amino acids) is recorded as “little toxicity”. Also, in series [1] (repeated administration), the anaphylaxis shock entry is on record as “does not cause anaphylaxis shock” and the production of antibodies result is listed as “does not stimulate production of antibodies”. Besides, the “solubility in organic solvents” value in the series “solubility in solvents” (ethyl acetate, butyl acetate, ethyl ether, hexane, petroleum ether, benzene, chloroform) is listed as “insoluble”. For the same compound, the “solubility in methanol and acetic acid” value in “solubility in solvents” (methanol, acetic acid) is “partially”. The solubility in water entry in the series “solubility in solvents” (water) is recorded as “soluble”.

The values above are taken from patent US4656158A, “Peptide, and production and use thereof” (Suntory Limited, priority 1984, dated 1987).
